Measurements: ChEMBL document CHEMBL1201862, “PubChem BioAssay data set” (2004)
Active and inactive are the calls of the source.

Tests used:
[1] = target: Luciferin 4-monooxygenase (Photinus pyralis, UniProt P08659); experiment: firefly luciferase enzyme inhibitors, dose response, biochemical, luminescence (AID 1891)
[2] = Luminescence Cell-Based Dose Confirmation HTS to Identify Inhibitors of Platelet Dense Granule Release. [Related pubchem assays: 1663 (Primary HTS), 1678 (Summary of Project)]; format: functional
[3] = inhibitors of intracellular T. cruzi replication, confirmation, NIH3T3 host cells, beta-gal luminescence (AID 2044); format: functional, cell-based;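 note: intracellular parasites grown in NIH/3T3 mouse fibroblasts as host cells; luminescent beta-galactosidase reporter signal from transgenic T. cruzi replicating inside host cells; inhibitors lower the luminescence signal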
[4] = cytotoxicity toward NIH3T3 fibroblasts, dose response, counter-screen, cell-based, ATP luminescence, mouse fibroblasts (AID 2010); format: functional;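 note: cells exposed to compound for about 90 hours before reading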
[5] = Luminescence Cell-Based Dose Retest to Confirm Inhibitors of Cancer Stem Cells. [Related pubchem assays (depositor defined):AID2717, AID2721]; format: functional; conditions: Homo sapiens
[6] = target: T1, Replicative DNA helicase DnaB (Mycobacterium tuberculosis, UniProt P9WMR3); experiment: DnaB intein splicing inhibitors, dose response, biochemical, cell-free fluorescence (AID 449749); format: functional
T1 sequence (P9WMR3 whole entry): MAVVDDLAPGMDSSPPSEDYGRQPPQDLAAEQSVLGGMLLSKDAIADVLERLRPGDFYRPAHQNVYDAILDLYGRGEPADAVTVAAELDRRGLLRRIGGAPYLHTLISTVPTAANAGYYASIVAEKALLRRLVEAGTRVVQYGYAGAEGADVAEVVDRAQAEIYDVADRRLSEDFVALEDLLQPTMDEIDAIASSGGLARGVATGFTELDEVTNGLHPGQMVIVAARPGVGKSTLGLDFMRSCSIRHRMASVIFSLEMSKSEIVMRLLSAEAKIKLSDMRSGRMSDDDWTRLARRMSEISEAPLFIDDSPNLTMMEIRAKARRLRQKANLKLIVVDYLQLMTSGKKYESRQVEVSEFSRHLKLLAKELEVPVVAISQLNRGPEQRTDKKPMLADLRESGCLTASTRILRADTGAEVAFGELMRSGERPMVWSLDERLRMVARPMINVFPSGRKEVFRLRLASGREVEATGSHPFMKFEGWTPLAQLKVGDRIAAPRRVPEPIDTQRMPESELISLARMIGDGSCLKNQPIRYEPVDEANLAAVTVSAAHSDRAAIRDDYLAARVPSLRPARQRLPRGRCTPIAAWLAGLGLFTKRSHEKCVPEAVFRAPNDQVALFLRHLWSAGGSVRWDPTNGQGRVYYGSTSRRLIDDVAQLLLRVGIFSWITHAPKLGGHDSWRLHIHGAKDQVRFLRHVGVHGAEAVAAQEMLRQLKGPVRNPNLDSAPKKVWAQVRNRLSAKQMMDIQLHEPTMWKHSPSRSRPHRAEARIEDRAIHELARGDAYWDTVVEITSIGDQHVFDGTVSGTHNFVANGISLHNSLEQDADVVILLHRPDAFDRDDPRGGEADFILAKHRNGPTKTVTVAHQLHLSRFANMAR

Protein RecA = target: T2, Protein RecA (Mycobacterium tuberculosis, UniProt P9WHJ3); experiment: Fluorescence Cell-Free Homogeneous Dose Retest to Identify Inhibitors of RecA-Intein Splicing Activity. [Related pubchem assays (depositor defined):AID2097, AID2223, AID489010, AID492950]; format: functional
T2 sequence (P9WHJ3 whole entry): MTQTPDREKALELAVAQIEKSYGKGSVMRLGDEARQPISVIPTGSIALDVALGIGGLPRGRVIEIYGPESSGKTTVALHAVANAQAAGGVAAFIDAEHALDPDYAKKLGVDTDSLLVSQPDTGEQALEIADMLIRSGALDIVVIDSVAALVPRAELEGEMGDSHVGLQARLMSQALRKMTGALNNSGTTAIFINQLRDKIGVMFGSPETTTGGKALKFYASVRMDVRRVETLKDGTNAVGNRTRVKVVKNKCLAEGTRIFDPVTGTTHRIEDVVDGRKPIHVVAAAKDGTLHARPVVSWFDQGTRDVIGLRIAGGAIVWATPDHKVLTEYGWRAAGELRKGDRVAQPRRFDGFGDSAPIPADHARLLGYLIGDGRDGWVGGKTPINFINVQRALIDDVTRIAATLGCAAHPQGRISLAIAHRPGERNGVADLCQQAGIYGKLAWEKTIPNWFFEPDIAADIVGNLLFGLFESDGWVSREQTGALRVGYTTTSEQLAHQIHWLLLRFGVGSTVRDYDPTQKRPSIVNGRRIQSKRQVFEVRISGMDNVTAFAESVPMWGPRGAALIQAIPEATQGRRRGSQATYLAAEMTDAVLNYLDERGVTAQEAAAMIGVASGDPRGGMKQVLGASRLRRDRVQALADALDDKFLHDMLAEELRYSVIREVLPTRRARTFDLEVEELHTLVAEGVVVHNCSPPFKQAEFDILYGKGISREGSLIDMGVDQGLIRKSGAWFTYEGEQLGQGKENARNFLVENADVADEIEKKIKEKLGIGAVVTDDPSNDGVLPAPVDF

Protein skinhead-1 = target: T3, Protein skinhead-1 (Caenorhabditis elegans, UniProt P34707); format: functional
T3 sequence (P34707 whole entry): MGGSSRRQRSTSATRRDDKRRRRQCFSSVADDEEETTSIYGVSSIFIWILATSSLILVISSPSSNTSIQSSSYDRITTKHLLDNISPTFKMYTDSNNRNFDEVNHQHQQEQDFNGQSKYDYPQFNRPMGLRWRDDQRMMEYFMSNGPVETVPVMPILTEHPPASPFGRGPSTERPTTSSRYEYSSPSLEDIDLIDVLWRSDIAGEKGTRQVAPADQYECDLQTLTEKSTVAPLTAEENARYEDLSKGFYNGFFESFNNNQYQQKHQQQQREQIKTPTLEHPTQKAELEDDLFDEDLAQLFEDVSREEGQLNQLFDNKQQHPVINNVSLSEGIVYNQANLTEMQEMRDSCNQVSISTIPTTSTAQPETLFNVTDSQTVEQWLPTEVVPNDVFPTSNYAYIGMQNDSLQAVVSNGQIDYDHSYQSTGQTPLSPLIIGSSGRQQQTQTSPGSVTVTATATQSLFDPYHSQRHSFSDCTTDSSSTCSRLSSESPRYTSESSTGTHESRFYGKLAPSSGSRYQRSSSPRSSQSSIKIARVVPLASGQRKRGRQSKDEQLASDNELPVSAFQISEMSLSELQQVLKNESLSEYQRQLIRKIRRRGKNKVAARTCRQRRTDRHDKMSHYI

[7] = target: T4, Rac GTPase-activating protein 1 (Homo sapiens, UniProt Q9H0H5); experiment: MgcRacGAP GTPase-activating activity inhibitors, confirmation, biochemical, ADP Hunter fluorescence, primary and confirmatory (AID 624330); format: functional
T4 sequence (Q9H0H5 whole entry): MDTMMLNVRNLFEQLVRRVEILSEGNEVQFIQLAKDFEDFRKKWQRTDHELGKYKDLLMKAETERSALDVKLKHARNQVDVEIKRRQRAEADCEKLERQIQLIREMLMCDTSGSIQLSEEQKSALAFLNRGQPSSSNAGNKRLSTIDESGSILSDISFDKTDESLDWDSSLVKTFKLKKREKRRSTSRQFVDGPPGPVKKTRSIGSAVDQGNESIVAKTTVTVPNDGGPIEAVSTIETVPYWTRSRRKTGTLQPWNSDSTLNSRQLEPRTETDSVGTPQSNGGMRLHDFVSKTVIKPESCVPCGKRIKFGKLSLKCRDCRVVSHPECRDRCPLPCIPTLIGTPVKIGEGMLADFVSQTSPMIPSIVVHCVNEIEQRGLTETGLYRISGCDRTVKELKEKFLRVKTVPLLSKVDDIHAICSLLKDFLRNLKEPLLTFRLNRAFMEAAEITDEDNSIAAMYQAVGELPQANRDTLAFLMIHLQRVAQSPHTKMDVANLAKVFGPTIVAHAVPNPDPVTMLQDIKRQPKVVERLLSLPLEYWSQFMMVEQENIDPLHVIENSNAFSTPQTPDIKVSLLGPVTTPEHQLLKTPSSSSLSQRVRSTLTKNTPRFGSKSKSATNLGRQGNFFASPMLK

Large T antigen = Large T antigen (Simian virus 40, UniProt P03070); format: functional, Betapolyomavirus macacae;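 note: Confirmatory-stage PubChem screen for compounds that inhibit SV40 T antigen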
[8] = target: FAD-linked sulfhydryl oxidase ALR (Homo sapiens, UniProt P55789); experiment: inhibitors of human ALR sulfhydryl oxidase, dose response, biochemical, H2O2 detection, luminescence, cherry-pick (AID 493248)
Sequence of FAD-linked sulfhydryl oxidase ALR (P55789 whole entry): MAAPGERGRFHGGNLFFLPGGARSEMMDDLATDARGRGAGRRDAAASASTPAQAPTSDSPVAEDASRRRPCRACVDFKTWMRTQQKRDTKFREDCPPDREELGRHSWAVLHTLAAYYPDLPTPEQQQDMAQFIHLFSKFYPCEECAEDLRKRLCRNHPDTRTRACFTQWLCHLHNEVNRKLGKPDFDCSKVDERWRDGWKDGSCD

Sequence of Large T antigen (P03070 whole entry): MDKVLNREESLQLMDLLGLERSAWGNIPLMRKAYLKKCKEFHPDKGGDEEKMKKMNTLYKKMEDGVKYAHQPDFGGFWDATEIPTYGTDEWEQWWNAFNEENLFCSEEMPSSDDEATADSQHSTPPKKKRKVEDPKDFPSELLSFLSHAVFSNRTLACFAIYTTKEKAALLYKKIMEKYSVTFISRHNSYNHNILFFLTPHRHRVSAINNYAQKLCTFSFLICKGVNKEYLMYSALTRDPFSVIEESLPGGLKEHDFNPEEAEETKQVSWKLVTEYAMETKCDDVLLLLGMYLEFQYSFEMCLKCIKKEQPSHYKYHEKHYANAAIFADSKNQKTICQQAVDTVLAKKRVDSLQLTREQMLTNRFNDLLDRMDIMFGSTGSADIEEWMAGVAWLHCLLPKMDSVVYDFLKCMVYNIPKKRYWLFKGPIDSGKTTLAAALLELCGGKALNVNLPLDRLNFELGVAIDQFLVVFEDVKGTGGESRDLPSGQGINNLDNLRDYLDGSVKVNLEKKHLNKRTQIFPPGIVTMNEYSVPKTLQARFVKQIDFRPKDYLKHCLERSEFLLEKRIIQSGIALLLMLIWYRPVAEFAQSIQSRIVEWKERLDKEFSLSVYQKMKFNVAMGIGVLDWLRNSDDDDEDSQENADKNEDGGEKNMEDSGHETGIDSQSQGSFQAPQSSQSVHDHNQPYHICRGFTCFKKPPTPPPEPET
Sequence of Luciferin 4-monooxygenase (P08659 whole entry): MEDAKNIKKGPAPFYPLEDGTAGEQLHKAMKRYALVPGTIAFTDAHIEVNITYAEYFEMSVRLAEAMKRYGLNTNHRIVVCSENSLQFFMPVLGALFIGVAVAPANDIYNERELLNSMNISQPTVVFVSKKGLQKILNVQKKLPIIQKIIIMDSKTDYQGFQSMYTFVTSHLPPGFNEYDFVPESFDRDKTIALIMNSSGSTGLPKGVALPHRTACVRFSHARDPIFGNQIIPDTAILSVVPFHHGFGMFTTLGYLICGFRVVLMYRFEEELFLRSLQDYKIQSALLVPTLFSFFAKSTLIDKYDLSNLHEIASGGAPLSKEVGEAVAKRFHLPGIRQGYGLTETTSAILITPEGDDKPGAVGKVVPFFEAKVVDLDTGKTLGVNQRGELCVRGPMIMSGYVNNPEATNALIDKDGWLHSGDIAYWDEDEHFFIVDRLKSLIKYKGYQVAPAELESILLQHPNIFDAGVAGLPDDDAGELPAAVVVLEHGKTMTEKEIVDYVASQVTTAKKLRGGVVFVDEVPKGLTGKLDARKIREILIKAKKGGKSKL

## CN(C)c1ccc(N/C=C/C(=O)c2ccc(F)cc2)cc1
[1]
  EC50: 0.816 µM (active)
[2]
  EC50: 1.5 µM (active)
[3]
  EC50: 2.32 µM (active)
[4]
  EC50: > 30 µM (not active)

## N#CC(C#N)=C(C#N)c1ccc(Nc2ccccc2)cc1
[5]
  AC50: 2.54 µM (active)
[6]
  AC50: > 380 µM (inactive)
Protein RecA
  EC50: 2.49 µM (active)

## O=C(NC1CCCC1)C(c1ccc(F)cc1)N(Cc1ccc(Cl)cc1)C(=O)CCl (centres undefined)
[6]
  AC50: 9.46 µM (active)
Protein RecA
  EC50: 0.965 µM (active)

## Brc1ccc(-c2nc(-c3ccccc3)no2)o1
Protein skinhead-1
  IC50: 14.1 µM (active)

## Cc1ccc(Cl)c(OCC(=O)Nc2ccccc2C(=O)NC2CC2)c1
[1]
  EC50: > 112 µM (not active)
[2]
  EC50: > 112 µM (not active)

## CCCCCN(C(=O)CCC(=O)OCC(=O)N1C(C)CCCC1C)c1c(N)n(CCCC)c(=O)[nH]c1=O (centres undefined)
[1]
  EC50: > 112 µM (not active)
[2]
  EC50: > 112 µM (not active)

## CCOC(=O)CSc1nc2sc3c(c2c(=O)n1C1CCCCC1)CCN(C)C3
[3]
  EC50: 1.43 µM (active)
[4]
  EC50: > 30 µM (not active)
[6]
  AC50: > 380 µM (inactive)
Protein RecA
  EC50: 15.2 µM (active)

## CCOC(=O)/C(C#N)=C\c1ccc(O)c(OC)c1
[6]
  AC50: 27.2 µM (active)
Protein RecA
  EC50: 9.54 µM (active)
[7]
  IC50: 48.9 µM (active)

## c1ccc(OCc2cc(-c3ccccc3)no2)cc1
Protein skinhead-1
  IC50: 68.7 µM (inactive)

## Cc1ccc2c(c1)c1nnc(SCC(=O)Nc3ccc(N(C)C)cc3)nc1n2CC(=O)O
[6]
  AC50: 92.5 µM (active)
Protein RecA
  EC50: 0.483 µM (active)

## COCC(C)NC(=O)CCS(=O)(=O)c1nc(-c2ccc(OC)cc2)cc(C(F)(F)F)n1 (centres undefined)
[6]
  AC50: 12.5 µM (active)
Protein RecA
  EC50: 6.72 µM (active)

## COc1cc(-c2csc(C)n2)ccc1O
Large T antigen
  IC50: 4.9 µM (active)
[8]
  AC50: 13.9 µM (active)

## COc1cc(/C=C2\SC(NS(=O)(=O)c3ccc(C)cc3)=NC2=O)c([N+](=O)[O-])cc1OC
Large T antigen
  IC50: 41.3 µM (active)

## Cn1cnc([N+](=O)[O-])c1Oc1ccc2ccccc2c1
[6]
  AC50: 31.9 µM (active)
Protein RecA
  EC50: 12.7 µM (active)

## Cc1cccc(CCNC(=O)c2cc(S(=O)(=O)N3CCCC3)cn2C)c1
[1]
  EC50: > 112 µM (not active)
[2]
  EC50: > 112 µM (not active)

## Cc1cc(NC(=O)CSCC(=O)Nc2ccccc2N2CCCCC2)no1
[1]
  EC50: > 112 µM (not active)
[2]
  EC50: > 112 µM (not active)

## CC(=O)c1cnc2c(-c3ccc(Cl)cc3)c(C)nn2c1C
[1]
  EC50: > 112 µM (not active)
[2]
  EC50: 78.7 µM (active)

## Cc1onc(-c2c(F)cccc2Cl)c1C(=O)Nc1nc2ccccc2[nH]1
Protein skinhead-1
  IC50: > 100 µM (inactive)

## O=C(/C=C/c1ccc([N+](=O)[O-])cc1)NCc1cccs1
[1]
  EC50: > 112 µM (not active)
[2]
  EC50: 57.2 µM (active)

## CN(C)c1ccc(NS(=O)(=O)c2cc3c4c(c2)CC(=O)N4CCC3)cc1
Large T antigen
  IC50: 69.8 µM (active)

## Cn1nc(C(=O)Nc2nc3ccc(S(C)(=O)=O)cc3s2)ccc1=O
[1]
  EC50: 3.18 µM (active)
[2]
  EC50: 7.45 µM (active)

## COc1ccc(NCC(O)Cn2cnc3c2c(=O)n(C)c(=O)n3C)cc1 (centres undefined)
Large T antigen
  IC50: 17.7 µM (active)

## COc1ccc(-c2nc(C[S+]([O-])CC(=O)NCc3ccco3)c(C)o2)cc1 (centres undefined)
[1]
  EC50: > 112 µM (not active)
[2]
  EC50: 27.9 µM (active)

## Cc1ccc2c(c1)COc1c3ccc(C(=O)N4CCOCC4)cc3nn1-2
[1]
  EC50: 29.6 µM (active)
[2]
  EC50: 20.9 µM (active)

## COc1cc2c(cc1OC)[C@@H](NC(=O)CCc1ccccc1)[C@H](OCc1ccccc1)C2
Protein skinhead-1
  IC50: > 100 µM (inactive)

## C(/C=C/c1ccccn1)=C\c1ccccc1
Protein skinhead-1
  IC50: 50.8 µM (inactive)

## COc1cccc(-n2cnnn2)c1
Protein skinhead-1
  IC50: > 100 µM (inactive)

## CN(C)C(CNC(=O)c1cccc(S(=O)(=O)N2CCN(c3ccc(F)cc3)CC2)c1)c1ccccc1 (centres undefined)
Protein skinhead-1
  IC50: 63.4 µM (inactive)

## Cc1ccc(-c2nc3ccc(Br)cn3c2Cc2ccccc2C(F)(F)F)cc1
Protein skinhead-1
  IC50: 75.5 µM (inactive)

## COC(=O)C1C2CC3c4[nH]c5cc(OC)ccc5c4CCN3CC2CC(OC(=O)CC(C)=O)C1OC (centres undefined)
Protein skinhead-1
  IC50: > 100 µM (inactive)

## O=C(Nc1ccccc1Cl)c1cc(C2CCCN(C(=O)OCCF)C2)on1 (centres undefined)
Protein skinhead-1
  IC50: > 100 µM (inactive)

## O=C1NC[C@H](Cc2ccccc2)N(C[C@@H]2CCCN2C[C@H](Cc2ccc(O)cc2)N2C[C@H](Cc3ccccc3)N(CC3CCCCCC3)C(=O)C2=O)C1=O
Protein skinhead-1
  IC50: > 100 µM (inactive)

## Cc1ccc(S(=O)(=O)/N=C(\c2ccc(F)cc2)n2c(C)nc3ccccc32)cc1
[1]
  EC50: > 112 µM (not active)
[2]
  EC50: > 112 µM (not active)

## CC(=O)Oc1cc(O)c2c(=O)c(OC(C)=O)c(-c3ccc(OC(C)=O)c(OC(C)=O)c3)oc2c1
Large T antigen
  IC50: 14.4 µM (active)
